Laboratory results from patent publication US20110313156A1 (BOEHRINGER INGELHEIM INTERNATIONAL GMBH, priority 2008, published 2011).

The molecules below were run against T1, ΔPH-PDK1 (aa 51-359; Q66A mutation) (Homo sapiens, UniProt O15530, Q66A) (assay: PDK1 kinase assay II (shortened enzyme)). Settings: compound at 10 μM, one asterisk: incubation for 24 h, read-out: % CTL (residual activity of the enzyme relative to DMSO control).
T1 construct: a shortened PDK1 enzyme (aa 51-359; Q66A mutation) is used; His6 (N, cleaved yes)
T1 sequence (O15530 51-359 Q66A): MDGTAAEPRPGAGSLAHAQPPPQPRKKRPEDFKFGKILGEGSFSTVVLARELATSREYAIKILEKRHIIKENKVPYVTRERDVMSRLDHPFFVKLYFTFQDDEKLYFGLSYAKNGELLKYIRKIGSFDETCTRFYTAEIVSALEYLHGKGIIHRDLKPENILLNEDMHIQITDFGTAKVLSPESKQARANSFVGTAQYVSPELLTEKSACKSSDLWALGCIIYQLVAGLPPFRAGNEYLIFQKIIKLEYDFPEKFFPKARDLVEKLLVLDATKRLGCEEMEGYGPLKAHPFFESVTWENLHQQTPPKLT
Type: biochemical
Description: Another assay was developed in which a shortened PDK1 enzyme (aa 51-359; Q66A mutation) is used that carries in the N-terminal position a His6 tag that is cleaved during purification. (ΔPH-PDK1).
The following components are combined in a well of a 96-well round-based dish (Messrs. Greiner bio-one, No. 650101): • 15 μL of compound to be tested in varying concentrations (e.g. Starting at 10 μM, and diluted in steps of 1:5) in 3.33% DMSO (final concentration 1% DMSO)/assay buffer (50 mM Tris pH 7.5, 0.05% β-mercaptoethanol, 10 mM Mg-acetate) • 15 μL (ΔPH-PDK1; 12 ng/well) and PDKtide ([…]-QEMFRDFDYIADWC) synthesised by Pepceuticals Limited, Nottingham, United Kingdom; 25 μM final concentration); (ΔPH-PDK1 and PDKtide are together diluted accordingly in assay buffer; PDKtide is present in this mixture as an 83.3 μM solution. These 30 […] are incubated for 24 h at RT before ATP solution is added. • 20 μL ATP solution (25 μM ATP with 1.0 μCi/well gamma-P33-ATP)
The reaction is started by adding the ATP solution and the mixture is incubated for 120 min at ambient temperature; at the start of the reaction the dishes are shaken gently. The reaction is stopped by the addition of 50 μL/well of 500 mM phosphoric acid (H3PO4) and incubated for about 20 min at ambient temperature. The precipitate is transferred by harvesting onto filter plates (96-well microtitre filter plate: UniFilter GF/C; Messrs Perkin Elmer; No. 6005174), then washed 6 times with 50 mM H3PO4 and dried at 60° C. Then the plate is stuck down with sealing tape, 25 μL/well of scintillation solution (Microscint 0; Messrs. Perkin Elmer; No. 6013611) are added and the amount of P33 precipitated is measured using the Wallac Betacounter. The measured data are evaluated using Graphpad Prism software.
The % CTL values indicate the residual activity of the enzyme after the addition of the inhibitory compound in the solvent DMSO in relation to the enzyme activity in the solvent DMSO without the addition of a compound (control). The majority of the values were determined using the PDK1 kinase assay III described hereinbefore. The values marked with an asterisk (* or**) were determined using the PDK1 kinase assay II described hereinbefore (one asterisk→incubation for 24 h; two asterisks→incubation for 5 min)

Row | Compound | remaining activity at 10 µM
1 | CN1CCN(c2ccc(Nc3ncc4cc(/C=C/CNC(=O)c5cncn(Cc6ccc(F)c(F)c6)c5=O)ccc4n3)cc2)CC1 [IV-4, 1-(3,4-difluorobenzyl)-N-[(2E)-3-(2-{[4-(4-methylpiperazin-1-yl)phenyl]-amino}quinazolin-6-yl)prop-2-en-1-yl]-6-oxo-1,6-dihydropyrimidine-5-carboxamide] | 67.3%
2 | C/C(=C\c1ccc2nc(Nc3ccc(CN(C)C)cc3)ncc2c1)CNC(=O)c1cncn(Cc2ccc(F)c(F)c2)c1=O [IV-28, 1-(3,4-difluorobenzyl)-N-{(2E)-3-[2-({4-[(dimethylamino)methyl]phenyl}amino)-quinazolin-6-yl]-2-methylprop-2-en-1-yl}-6-oxo-1,6-dihydropyrimidine-5-carboxamide] | 27.9%
3 | CN1CCC(N(C)c2ccc(Nc3ncc4cc(/C=C/CNC(=O)c5cc(Cl)nn(Cc6ccc(F)c(F)c6)c5=O)ccc4n3)cc2)CC1 [IV-40, 6-chloro-2-(3,4-difluorobenzyl)-N-{3-[2-({4-[methyl(1-methylpiperidin-4-yl)amino]phenyl}amino)quinazolin-6-yl]prop-2-en-1-yl}-3-oxo-2,3-dihydropyridazine-4-carboxamide] | 25.4%
4 | CC(=O)Nc1ccc(Nc2ncc3cc(/C=C/CNC(=O)c4cncn(Cc5ccc(F)c(F)c5)c4=O)ccc3n2)cc1 [IV-47, N-[(2E)-3-(2-{[4-(acetylamino)phenyl]amino}quinazolin-6-yl)prop-2-en-1-yl]-1-(3,4-difluorobenzyl)-6-oxo-1,6-dihydropyrimidine-5-carboxamide] | 16.6%

The next lines start with the values.

Row | remaining activity at 10 µM | Compound
5 | 9.1% | Cc1c(C(=O)NCC#Cc2cc3cnc(Nc4ccccc4)nc3n(C)c2=O)c(=O)n(Cc2ccc(F)c(F)c2)n1C [III-23, 2-(3,4-difluorobenzyl)-1,5-dimethyl-N-{3-[8-methyl-7-oxo-2-(phenylamino)-7,8-dihydropyrido[2,3-d]pyrimidin-6-yl]prop-2-yn-1-yl}-3-oxo-2,3-dihydro-1H-pyrazole-4-carboxamide]
6 | 13.8% | Cc1c(C#CCNC(=O)c2c(C)n(C)n(Cc3ccc(F)c(F)c3)c2=O)c(=O)n(C(C)C)c2nc(Nc3ccc(N4CCOCC4)cc3)ncc12 [III-28, 2-(3,4-difluorobenzyl)-1,5-dimethyl-N-{3-[5-methyl-2-{[4-(morpholin-4-yl)phenyl]amino}-7-oxo-8-(propane-2-yl)-7,8-dihydropyrido[2,3-d]pyrimidin-6-yl]prop-2-yn-1-yl}-3-oxo-2,3-dihydro-1H-pyrazole-4-carboxamide]
7 | 6.5% | CN1CCC(Nc2ccc(Nc3ncc4cc(C#CCNC(=O)c5cncn(Cc6ccc(F)c(F)c6)c5=O)ccc4n3)cc2F)CC1 [III-31, 1-(3,4-difluorobenzyl)-N-{3-[2-({3-fluoro-4-[(1-methylpiperidin-4-yl)amino]-phenyl}amino)quinazolin-6-yl]prop-2-yn-1-yl}-6-oxo-1,6-dihydropyrimidine-5-carboxamide]
